Data taken from patent publication US11045465B2, “Methods and compositions to prevent addiction” (FLORIDA STATE UNIVERSITY RESEARCH FOUNDATION, INC., priority 2009, dated 2021).
“Also recorded” adds a separate entry of the source.

How the values were obtained:
KOPR = conditions: 2.5 mg/kg; s.c. (Xia et al., 2007); cited from earlier work
μ opioid receptor (MOPR) [1] = target: T1, μ opioid receptor (MOPR) (Mus musculus, UniProt P42866); assay: DAMGO concentration-dependent [35S]GTPγS binding in caudate-putamen and nucleus accumbens membrane preparations; format: biochemical, mice
T1 construct: The caudate-putamen and nucleus accumbens were microdissected and the tissue was homogenized; from tissue; host or cells: mouse brain: caudate-putamen and nucleus accumbens membrane preparations
Protocol: (§1) MOPR activity was assayed by using [^35S]GTPγS binding on membrane preparations using a modification of the previously described method^23. The mice were sacrificed by cervical dislocation and the brain was dissected rapidly. The caudate-putamen and nucleus accumbens were microdissected and the tissue was homogenized using teflon pistol in Eppendorf tubes (10 strokes) in 300 μl of homogenization buffer containing 25 mM Tris/pH7.4, 5 mM EDTA and 0.1 mM PMSF and kept on ice. Homogenate was diluted to 2.5 ml using the homogenization buffer and centrifuged at ˜350,000 g for 30 min. After washing 3 times with 50 mM Tris-HCl/pH7.4, the pellets were re-suspended in 50 mM Tris-HCl/pH7.4 containing 0.32 M sucrose, passed through a 26.5 G needle for 3 times, frozen in dry ice/ethanol and stored in −80° C. until use. […] Bound and free [^35S]GTPγS were separated by filtration with GF/B filters under reduced pressure. Radioactivity on filters was determined by liquid scintillation counting. Nonspecific binding was subtracted from total stimulated and basal binding. […] MOPR activity was reported as % of baseline (unstimulated) activity: [Disintegrations per minute (DPM) with agonist stimulated binding−DPM of nonspecific binding)/(DPM basal (without agonist)−DPM nonspecific)×100. Protein content of membranes was determined by the BCA method of^24 with bovine serum albumin as the standard.

[2] = cited from earlier work
healthy human volunteers = conditions: studies that evaluated detection/likeability (Kollins et al., 2001); cited from earlier work
[3] = test system: frontal cortical dopamine levels; conditions: cited from earlier work
μ opioid receptor (MOPR) [4] = target: T1, μ opioid receptor (MOPR); assay: DAMGO-stimulated [35S]GTPγS binding (MOPR activity) in caudate-putamen and nucleus accumbens membranes of drug-treated mice from the CPP assay; format: in vivo; conditions: for MOPR activity (DAMGO-stimulated [35S]GTPγS binding) compared to saline: caudate-putamen and nucleus accumbens, 10 μM DAMGO
Protocol: as §1

mice = assay: Locomotor activity measured during the CPP assay; format: in vivo; conditions: for MPH-induced increase in locomotor activity: naltrexone 1, 5 or 10 mg/kg 30 min prior to MPH 7.5 mg/kg
Protocol: In control groups, saline or naltrexone at each of the doses was administered alone (without MPH).

Adult C57BL/6 mice = assay: Conditioned place preference (CPP); format: in vivo; conditions: for MPH-induced place preference / CPP score compared to the saline group: naltrexone 10 mg/kg (highest dose) prior to MPH 7.5 mg/kg; for place preference (CPP): naltrexone 1 or 10 mg/kg alone; for effect on high dose MPH-induced CPP (rewarding effects): naltrexone prior to MPH, naltrexone dose not stated
Protocol: Photobeams wired to a computer can record animal location (time spent in the chamber). The central chamber has a smooth floor with gray color. Each preference chamber is either white with a mesh floor or black with a bar floor. The CPP procedure included three phases. (1) The pre-conditioning phase was performed on day 1 (two sessions daily, AM and PM). In each preconditioning session, mice were initially placed in the central gray chamber for 2 min and then allowed free access to the white and black chambers for 20 min. The time spent in each chamber was recorded. […] (2) The conditioning phase was carried out on each of days 2 to 6 [two sessions daily, AM and PM one each for vehicle-paired (saline as vehicle) and drug-paired (cocaine or MPH as drugs) sessions]. In the vehicle-paired session mice were injected with saline (i.p.) and placed in the central gray chamber for 2 min (to isolate injection effect to the central chamber) and then confined to the vehicle-paired chamber for 30 min. In the drug-paired session, the mice were given the drug in the central chamber, retained there for 2 min and then confined for 30 min in the drug-paired chamber. […] The time spent in each chamber was recorded. The difference between time spent in the drug-paired chamber during the test phase and pre-conditioning phases was calculated as the CPP score.

rats = conditions: 0.5 mg/kg MPH, rats (Paine et al., 2007); cited from earlier work
[5] = 0.75 mg/kg dose (Balcioglu et al., 2009)
[6] = MPH 7.5 mg/kg vs cocaine 10 mg/kg
[7] = naltrexone 1, 5 or 10 mg/kg prior to MPH 7.5 mg/kg

T1 sequence (P42866 whole entry): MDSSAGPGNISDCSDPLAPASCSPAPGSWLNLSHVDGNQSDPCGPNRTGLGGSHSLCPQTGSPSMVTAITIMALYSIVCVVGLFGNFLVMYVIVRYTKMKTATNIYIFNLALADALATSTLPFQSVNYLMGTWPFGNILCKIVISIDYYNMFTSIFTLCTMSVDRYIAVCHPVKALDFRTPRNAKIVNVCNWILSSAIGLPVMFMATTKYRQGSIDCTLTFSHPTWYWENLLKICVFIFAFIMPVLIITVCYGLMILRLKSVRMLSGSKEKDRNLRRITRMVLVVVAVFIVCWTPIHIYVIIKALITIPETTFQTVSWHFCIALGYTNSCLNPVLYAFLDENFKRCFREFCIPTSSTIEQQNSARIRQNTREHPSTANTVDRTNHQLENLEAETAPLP

CC(N)Cc1ccccc1 (stereo not drawn) [Amphetamine]
KOPR signaling in the nucleus accumbens (KOPR): modulates KOPR signaling in the nucleus accumbens in a region-specific manner

C[C@@H](NC(=O)[C@@H](N)Cc1ccc(O)cc1)C(=O)NCC(=O)N(C)[C@@H](Cc1ccccc1)C(=O)NCCO [DAMGO]
concentration at which maximal [35S]GTPγS binding was reached (μ opioid receptor (MOPR) [1]): 10 µM
maximal [35S]GTPγS binding (μ opioid receptor (MOPR) [1]; at 10 μM DAMGO): 1.75 fold of the basal level

COC(=O)C(c1ccccc1)C1CCCCN1 (stereo not drawn) [MPH, Methylphenidate]
serum and brain concentrations of d-methylphenidate ([2]; 0.75 mg/kg MPH, adult mice (ref. 19)): equivalent to its serum and brain (estimated) concentrations in ADHD patients taking therapeutic doses of MPH
clinically relevant serum levels of D-MPH [2, 5]: 6 to 10 ng/mL
time brain levels remain high [2, 5]: ~30 min
time to reach clinically relevant serum levels of D-MPH [2, 5]: ≤ 15 min
studies reporting subjective responses to oral MPH (healthy human volunteers): 18 (72%) of 25 studies
time after MPH administration at which increases in frontal cortical dopamine levels occur [3, 5]: ~60 min
effect on neurotransmitter levels ([3]; low doses of MPH (literature)): selectively affect neurotransmitter levels in the frontal cortex
MOPR activity (μ opioid receptor (MOPR) [4]; 7.5 mg/kg MPH to 25-day old mice for 5 days, expected): MOPR upregulation
MOPR activity (DAMGO-stimulated [35S]GTPγS binding) compared to saline (μ opioid receptor (MOPR) [4]; MPH 0.75 mg/kg i.p.): did not produce significant enhancements
MOPR activity (DAMGO-stimulated [35S]GTPγS binding) compared to saline (μ opioid receptor (MOPR) [4]; MPH 7.5 mg/kg i.p.): significantly greater; also recorded: activate MOPR; also recorded: upregulation of striatal MOPR; also recorded: upregulate MOPR activity; also recorded: significantly higher MOPR activity
MOPR activity, high dose MPH group vs cocaine group (μ opioid receptor (MOPR) [4]; [6]): no significant difference
locomotor activity compared to saline (mice; MPH 0.75 mg/kg): no significant effect
locomotor activity compared to saline (mice; MPH 7.5 mg/kg): significantly increased locomotor activity; also recorded: increased locomotor activity significantly
place preference: time spent in the drug-paired chamber, test vs pre-conditioning sessions (Adult C57BL/6 mice; MPH 0.75 mg/kg (low, therapeutic dose) i.p.): did not; also recorded: neither induce place preference; also recorded: do not; also recorded: no statistically significant difference
place preference: time spent in the drug-paired chamber, test vs pre-conditioning sessions (Adult C57BL/6 mice; MPH 7.5 mg/kg (high, supra-therapeutic dose) i.p., alone): showed significant place preference; also recorded: induced CPP; also recorded: produce CPP; also recorded: induce place preference; also recorded: produce place preference; also recorded: spent significantly longer period of time in the drug-paired chamber; also recorded: produced significant increase
CPP score compared to the saline and low dose MPH groups (Adult C57BL/6 mice; MPH 7.5 mg/kg i.p.): significantly higher CPP scores
CPP score, high dose MPH group vs cocaine group (Adult C57BL/6 mice; [6]): no statistically significant difference
accuracy in 5-CSRT assay (rats): increased accuracy

O=C1CC[C@@]2(O)[C@H]3Cc4ccc(O)c5c4[C@@]2(CCN3CC2CC2)[C@H]1O5 [naltrexone]
MPH-induced increase in locomotor activity (mice): not affected
MPH-induced increase in locomotor activity (mice; listed as Naltrexone): did not block the MPH-induced increases in locomotor activity
locomotor activity (mice; naltrexone 1, 5 or 10 mg/kg alone): did not affect locomotor activity
naltrexone dose needed to block reinforcing properties of MPH (Adult C57BL/6 mice; 7.5 mg/kg MPH, preliminary findings): at least 5 mg/kg
MPH-induced place preference / CPP score compared to the saline group (Adult C57BL/6 mice): not significantly different from that for the saline group
MPH-induced place preference / CPP score compared to the saline group (Adult C57BL/6 mice; listed as Naltrexone): blocking it completely
time spent in the drug-paired chamber, PC vs Test sessions (Adult C57BL/6 mice; naltrexone 1, 5 or 10 mg/kg administered prior to MPH 7.5 mg/kg): significant difference between PC and Test sessions
CPP score compared to MPH administered alone (Adult C57BL/6 mice; [7]): significantly decreased the CPP score
dose dependence of the decrease in the CPP score (Adult C57BL/6 mice; [7]): dose-dependent
place preference (CPP) (Adult C57BL/6 mice): did not induce CPP
place preference (CPP) (Adult C57BL/6 mice; listed as Naltrexone): did not affect CPP
MPH-induced CPP / CPP score compared to MPH administered alone (Adult C57BL/6 mice; naltrexone 5 or 10 mg/kg 30 min prior to MPH 7.5 mg/kg): significantly lower; also recorded: blocks MPH-induced conditioned place preference (CPP)
effect on high dose MPH-induced CPP (rewarding effects) (Adult C57BL/6 mice): can significantly attenuate rewarding effects of MPH
effect on high dose MPH-induced CPP (rewarding effects) (Adult C57BL/6 mice; listed as Naltrexone): prevents MPH-induced CPP; also recorded: attenuates high dose MPH-induced place preference

CCN1CCC[C@H]1CNC(=O)c1c(O)c(Cl)cc(Cl)c1OC [raclopride]
CPP score compared to the MPH only group (Adult C57BL/6 mice; MPH 7.5 mg/kg + raclopride): did not show significant differences
